≈ marks a conversion by molar mass, not a printed value. Where “and” joins values, the source holds several entries; their conditions need not be identical. Equal entries are not always repeated. Entries after “also recorded” stand apart in the source; their conditions may differ. Where two headings read alike, the source gives them in different places.
Tests used:
Aedes aegypti larvae = assay: Aedes aegypti killing assay (larval bioassay, two-fold dilution series); assay type: in vivo; details: for killing activity against Aedes aegypti: larvae
Protocol: Insect killing assays. Each compound was dissolved in dimethyl sulfoxide (DMSO). Killing dose curves were constructed for each compound by producing a two-fold dilution series for each compound (e.g., comprising approximately 20 serial dilutions of a stock). Dilutions were made in sterile nutrient yeast extract salt medium (NYSM) broth. The NYSM contained 8 g/L nutrient broth powder, 0.5 g/L yeast extract, 1 mM MgCl2, 700 μM CaCl2, and 50 μM MnCl2 in water. The two-fold dilution series were tested in a killing bioassay as described below. Data were collected to construct a dose curve and determine the half-maximal lethal concentration (LC50) value.
Bioassays were performed using second or third instar Aedes aegypti larvae, with biological replication. Ae. aegpyti larvae were purchased from Benzon Research, Inc. (Carlisle, PA). Larvae were washed with sterile water before transfer to 24-well assay plates containing 1 mL of sterile water in each well. Each well contained 5 larvae. The final DMSO concentration in each assay well was 1%. Larval mortality was scored for each well at 24-hour timepoints after application. […] In Table 1, mean mortalities and standard deviations were calculated from at least three independent biological replicates. […] LC50 values were calculated using GraphPad Prism software.

[1] = system: Spodoptera frugiperda (fall armyworm) first instar larvae; assay: Spodoptera frugiperda killing assay (diet-surface overlay); assay type: in vivo
Protocol: Insect killing assays. Each compound was dissolved in dimethyl sulfoxide (DMSO). Killing dose curves were constructed for each compound by producing a two-fold dilution series of the compound (e.g., comprising approximately 16 serial dilutions of a stock for 3,3′-diindolylmethane and 3-((1H-Indol-2-yl)methyl)-1H-indole and comprising approximately 12 serial dilutions of a stock for 3,3′-diindolyl and 3,3′-(pyridin-4-ylmethylene)bis(1H-indole)). Dilutions were made in sterile NYSM broth as described above. The two-fold dilution series were tested in a killing bioassay as described below. Data were collected to construct a dose curve and determine the half-maximal lethal concentration (LC50) value.
Bioassays were performed using first instar larvae of the Lepidopteran species Spodoptera frugiperda (fall armyworm), with an N=16 for each concentration of compound tested. S. frugiperda larvae were purchased from Benzon Research, Inc. (Carlisle, PA). A diet-surface overlay format was used in which 1 milliliter of standard lepidopteran diet was placed in each well. One hundred microliters of sample were pipetted into each well and allowed to dry. A DMSO control was included with each set of samples.
During the development of embodiments of the technology described herein, experiments were conducted to test the killing of arundine against a panel of 11 insect species. […] Briefly, arundine was dissolved in dimethyl sulfoxide (DMSO). Killing dose curves were constructed by producing a two-fold dilution series of arundine. Dilutions were made in sterile NYSM as described. The two-fold dilution series were tested in a killing bioassay performed using first instar larvae of the species listed in Table 4, with an N=16 for each concentration of compound tested. A diet-surface overlay format was used in which 1 milliliter of standard lepidopteran diet was placed in each well. One hundred microliters of sample were pipetted into each well and allowed to dry. A DMSO control was included with each set of samples. […] Data were collected to construct a dose curve and determine the half-maximal lethal concentration (LC50) value.

Cry1Fa resistant FAW = assay: Killing of Cry1Fa resistant fall armyworm; assay type: in vivo, Spodoptera frugiperda; details: 1000 ppm BIM compound, 20 μl on diet surface; Cry1 FAW neonates; 5-7 days
Protocol: During the development of embodiments of the technology provided herein, experiments were conducted to test the killing potency of arundine-derived BIM compounds against strains of fall armyworm (FAW) that are resistant to Bacillus thuringiensis (Bt) insecticidal proteins (e.g., Cry1Fa and Vip3A). Susceptible FAW (Spodoptera frugiperda) was obtained from Benzon Research Inc, Lancaster, PA. Cry1Fa resistant FAW originating from Puerto Rico was reared in a facility by Genective (Weldon, IL). Vip3A resistant FAW originating from southern US was reared in a facility by Genective (Weldon, IL).
FAW eggs were incubated at approximately 26° C. at 50% relative humidity until eclosion (approximately 3 days) and the hatch was timed to within 12 hours of infesting the diet plates. BIM compounds were obtained from frozen stocks, thawed, suspended in 5% DMSO along with NYSM buffer to provide a solution of 2000 ppm BIM compound in a total volume of 1.0 ml, and stored at −20° C. For testing, a single tube of each BIM compound sample was thawed at 4° C. NYSM buffer was warmed to room temperature. A volume of 750 μl. NYSM buffer was added to 750 μl from each 1.0-ml volume to prepare samples of 1.5 ml BIM compound at 1000 ppm for testing. A total of three BIM preparations per BIM molecule were prepared and tested for killing potency. Compounds tested were BIM-1, 11, 25, 26, 28, 29, 30, 32, 34. A solution of 5% DMSO in NYSM buffer was used as a negative control.
A standard commercially available semi-solid lepidopteran diet was prepared following manufacturer's instructions (Frontier, multi-species diet). […] LB+Kanamycin (antibiotic) growth media is the negative control for bacterial cultures. Cry1Fa is a positive control prepared as E. coli cells expressing the full-length Cry1Fa protein resuspended in PBS buffer at half the volume of the original growth culture resulting in 2× concentration of cells. Vip3A is a positive control prepared as E. coli whole cell culture expressing Vip3A.
For each of 3 replicates, 200 μl of diet was prepared in wells of a 96-well plate and the diet plates were warmed to room temperature prior to dispensing samples. After 750 μl NYSM buffer was added to 750 μl from each 1.0-ml volume to prepare samples of 1.5 ml BIM compound at 1000 ppm for testing, BIM solutions were vortexed and 20 μl were dispensed onto the diet surface in each of 16 wells using a repeating pipettor. These steps were repeated for each sample and control for each insect population being tested. BIM compound and control solutions were allowed to absorb into the diet in a biosafety hood until the diet surface was visibly dry. Once dry, wells were sealed with a clear membrane. Two pin holes were poked through the membrane in each well to maintain appropriate humidity level and aeration. Each well was infested with a single neonate larva, and the wells were resealed with perforated membrane to prevent escape. The infested plates were incubated in environmental chambers at 26° C. and 50% relative humidity for 5-7 days. All bioassays were assessed visually to record larval mortality and growth inhibition.

[2] = second or third instar larvae, mortalities at 72 hours, mean ± standard deviation, at least three biological replicates
[3] = second or third instar larvae, mortalities at 72 hours, mean ± standard deviation, at least three biological replicates, read-out: LC50
[4] = Spodoptera frugiperda, first instar larvae, calculated from killing dose curves FIG. 3D to 3NN, read-out: LD50 (the source's name)
[5] = first instar larvae, calculated from killing dose curves FIG. 3D to 3NN, read-out: LD50 (the source's name)

## COc1ccc(C(c2c[nH]c3ccccc23)c2c[nH]c3ccccc23)cc1 [1,1-bis(3′-indolyl)-1-(p-methoxyphenyl)methane]
Aedes aegypti larvae; in vivo
  LC50: 66.6 ± 56.4 µM
  LC50 (μg/mL): 23.4 ± 19.8 µg/mL (≈ 66.4 µM)

## Cc1cn(C)c2ccccc12 [1,3 dimethylindole, 1,3-dimethylindole]
Aedes aegypti larvae; Aedes aegypti, 72 h
  LC50: 13.8 µg/mL and 95.2 µM

## Cc1cc2ccccc2[nH]1 [2-methindole]
Aedes aegypti larvae; [2]
  LC50 (μg/mL): 6.8 ± 0.5 µg/mL (≈ 51.8 µM)
Aedes aegypti larvae; [3]
  LC50: 52.2 ± 3.6 µM

## Clc1ccc(C(c2c[nH]c3ccccc23)c2c[nH]c3ccccc23)cc1 [3,3′-((4-chlorophenyl)methylene)bis(1H-indole)]
Aedes aegypti larvae; Aedes aegypti, 72 h
  LC50: 2.6 µg/mL and 7.3 µM

## CC(c1c[nH]c2ccccc12)c1c[nH]c2ccccc12 [3,3′-(ethane-1,1-diyl)bis(1H-indole)]
Aedes aegypti larvae; Aedes aegypti, 72 h
  LC50: 4.2 µg/mL and 16.1 µM

## c1ccc2c(C(c3ccncc3)c3c[nH]c4ccccc34)c[nH]c2c1 [3,3′-(pyridin-4-ylmethylene)bis(1H-indole)]
Aedes aegypti larvae; Aedes aegypti, 72 h
  LC50: 62.9 µg/mL and 194 µM
Aedes aegypti larvae
  killing activity against Aedes aegypti: active
[1]; Spodoptera frugiperda, first instar larvae, N=16 per concentration, representative curve fit
  LC50: 120 µg/mL and 370 µM
[1]; first instar larvae
  activity against S. frugiperda: active

## c1ccc2c(-c3c[nH]c4ccccc34)c[nH]c2c1 [3,3′-diindolyl]
Aedes aegypti larvae
  killing activity against Aedes aegypti: did not display any bioactivity; also recorded: does not have significant killing activity
Aedes aegypti larvae; [2]
  LC50 (μg/mL): >2500 µg/mL
Aedes aegypti larvae; [3]
  LC50: > 1000 µM
[1]; first instar larvae
  activity against S. frugiperda: not active; also recorded: does not have significant killing activity

## Fc1ccc2[nH]cc(Cc3c[nH]c4ccc(F)cc34)c2c1 [3,3′-methylenebis(5-fluoro-1H-indole)]
Aedes aegypti larvae; Aedes aegypti, 72 h
  LC50: 2.2 µg/mL and 7.8 µM

## CCc1c[nH]c2ccccc12 [3-ethyl-1H-indole]
Aedes aegypti larvae; Aedes aegypti, second or third instar larvae, mortalities at 72 hours, mean ± standard deviation, at least three biological replicates, read-out: LC50
  LC50: 60 ± 24.2 µM
Aedes aegypti larvae; Aedes aegypti, second or third instar larvae, mortalities at 72 hours, mean ± standard deviation, at least three biological replicates, read-out: LC50 (μg/mL)
  LC50: 8.7 ± 3.5 µg/mL

## Oc1ccc2[nH]ccc2c1 [5-hydroxyindole]
Aedes aegypti larvae; Aedes aegypti, 72 h
  LC50: 279 µg/mL and 2.09 mM

## Cn1cc(Cc2cn(C)c3ccccc23)c2ccccc21 [BIM-2]
[1]; [4]
  LC50: > 3000 µM

## CC(c1c[nH]c2ccccc12)c1c[nH]c2ccccc12 [BIM-3]
[1]; [4]
  LC50: 1280 µM

## CC(C)(c1c[nH]c2ccccc12)c1c[nH]c2ccccc12 [BIM-4]
[1]; [4]
  LC50: 1810 µM

## CCC(c1c[nH]c2ccccc12)c1c[nH]c2ccccc12 [BIM-5]
[1]; [4]
  LC50: 2380 µM

## CCCC(c1c[nH]c2ccccc12)c1c[nH]c2ccccc12 [BIM-6]
[1]; [4]
  LC50: 3240 µM

## c1ccc(C(c2c[nH]c3ccccc23)c2c[nH]c3ccccc23)cc1 [BIM-7]
[1]; [4]
  LC50: 1680 µM

## c1ccc(CC(c2c[nH]c3ccccc23)c2c[nH]c3ccccc23)cc1 [BIM-8]
[1]; [4]
  LC50: 1480 µM

## Clc1cccc2[nH]cc(Cc3c[nH]c4cccc(Cl)c34)c12 [BIM-9]
[1]; [4]
  LC50: 1560 µM

## Clc1ccc2[nH]cc(Cc3c[nH]c4ccc(Cl)cc34)c2c1 [BIM-10]
[1]; [4]
  LC50: > 3000 µM

## Clc1cccc2c(Cc3c[nH]c4c(Cl)cccc34)c[nH]c12 [BIM-12]
[1]; [4]
  LC50: 1180 µM

## Fc1ccc2c(Cc3c[nH]c4cc(F)ccc34)c[nH]c2c1 [BIM-13]
[1]; [4]
  LC50: 1850 µM

## Brc1ccc2c(Cc3c[nH]c4cc(Br)ccc34)c[nH]c2c1 [BIM-14]
[1]; [4]
  LC50: 934 µM

## Ic1ccc2c(Cc3c[nH]c4cc(I)ccc34)c[nH]c2c1 [BIM-15]
[1]; [4]
  LC50: > 10000 µM

## N#Cc1ccc2c(Cc3c[nH]c4cc(C#N)ccc34)c[nH]c2c1 [BIM-17]
[1]; [4]
  LC50: > 10000 µM

## O=[N+]([O-])c1ccc2c(Cc3c[nH]c4cc([N+](=O)[O-])ccc34)c[nH]c2c1 [BIM-18]
[1]; Spodoptera frugiperda, read-out: LD50 (μM)
  LC50: > 10000 µM

## Cc1ccc2c(Cc3c[nH]c4cc(C)ccc34)c[nH]c2c1 [BIM-19]
[1]; [4]
  LC50: 1410 µM

## COc1ccc2c(Cc3c[nH]c4cc(OC)ccc34)c[nH]c2c1 [BIM-20]
[1]; [5]
  LC50: >3000 µM

## FC(F)(F)c1ccc2c(Cc3c[nH]c4cc(C(F)(F)F)ccc34)c[nH]c2c1 [BIM-21]
[1]; [4]
  LC50: 974 µM

## CC(c1c[nH]c2cc(Cl)ccc12)c1c[nH]c2cc(Cl)ccc12 [BIM-22]
[1]; [4]
  LC50: < 3000 µM

## CCC(c1c[nH]c2cc(Cl)ccc12)c1c[nH]c2cc(Cl)ccc12 [BIM-23]
[1]; [4]
  LC50: 1350 µM

## CCCC(c1c[nH]c2cc(Cl)ccc12)c1c[nH]c2cc(Cl)ccc12 [BIM-24]
[1]; [4]
  LC50: 678 µM

## c1ccc2c(C(CCCC(c3c[nH]c4ccccc34)c3c[nH]c4ccccc34)c3c[nH]c4ccccc34)c[nH]c2c1 [BIM-27]
[1]; [4]
  LC50: > 5000 µM

## Clc1ccc2c(C(c3ccc(Br)cc3)c3c[nH]c4cc(Cl)ccc34)c[nH]c2c1 [BIM-28]
[1]; [4]
  LC50: 371 µM
Cry1Fa resistant FAW
  lethality: 100%

## Cc1ccc(C(c2c[nH]c3cc(Cl)ccc23)c2c[nH]c3cc(Cl)ccc23)cc1 [BIM-29]
[1]; [5]
  LC50: 611 µM
Cry1Fa resistant FAW
  lethality: 100%

## Clc1ccc(C(c2c[nH]c3cc(Cl)ccc23)c2c[nH]c3cc(Cl)ccc23)cc1 [BIM-33]
[1]; [4]
  LC50: 485 µM

## Clc1ccc2c(C(c3ccccc3Br)c3c[nH]c4cc(Cl)ccc34)c[nH]c2c1 [BIM-34]
[1]; [4]
  LC50: 352 µM
Cry1Fa resistant FAW
  lethality: 100%

## Clc1ccc2c(C(c3cccc(Br)c3)c3c[nH]c4cc(Cl)ccc34)c[nH]c2c1 [BIM-35]
[1]; [4]
  LC50: 429 µM

## Clc1ccc2c(Cc3c[nH]c4ccccc34)c[nH]c2c1 [BIM-36]
[1]; [5]
  LC50: 2457 µM

## Clc1ccc2c(C(c3ccc(Br)cc3)c3c[nH]c4ccccc34)c[nH]c2c1 (centres unmarked) [BIM-37 R/S 1:1]
[1]; [5]
  LC50: 725 µM

## Clc1ccc2c(C(c3ccc(Br)cc3)c3c[nH]c4ccccc34)c[nH]c2c1 (centres unmarked) [BIM-37 R/S 3:1]
[1]; [5]
  LC50: 576 µM

## CN(C)Cc1c[nH]c2ccccc12 [gramine]
Aedes aegypti larvae; Aedes aegypti, 72 h
  LC50: 189 µg/mL and 1.08 mM

## OCc1c[nH]c2ccccc12 [indole-3-carbinol]
Aedes aegypti larvae; in vivo
  LC50: 453 ± 307 µM
  LC50 (μg/mL): 66.7 ± 45.2 µg/mL (≈ 453 µM)

## c1ccc2[nH]ccc2c1 [indole]
Aedes aegypti larvae; Aedes aegypti, 72 h
  LC50: 40.2 µg/mL and 344 µM
